What was measured:
[1] = test system: MMP13 in SW1353 cells; experiment: OSM/IL-1β signaling assay (MMP13 levels in SW1353 cells); type: cell-based; details: Homo sapiens; SW1353 cells, OSM and IL-1β triggered, MMP13 levels 48 hours after triggering; read-out: MMP13 EC50;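 further: secreted MMP13 captured by antibody, activated with APMA and its activity read by fluorescence, inhibition scaled between vehicle-treated triggered wells (0%) and untriggered wells (100%)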
[2] = test system: JAK-STAT signalling in HeLa cells; experiment: JAK-STAT signalling assay (OSM-triggered pSTAT1(2)-luciferase reporter in HeLa cells); type: cell-based; details: Homo sapiens; HeLa cells, OSM-triggered pSTAT1(2)-luciferase reporter; read-out: STAT signalling EC50
How it was run: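 Read-out is oncostatin M–driven pSTAT1(2)-luciferase activity, corrected by co-transfected LacZ β-galactosidase, in transiently transfected HeLa cells cultured overnight at 37 °C, 10% CO2. Inhibition percentages against positive and negative controls were plotted across doses to derive EC50.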

[3] = Microsomal stability, human liver microsomes; type: in vitro ADME; details: percentage of compound remaining after 60 minutes, 3 μM compound
Protocol: (§1) 40 μL of deionised water was added to a well of a polypropylene Matrix 2D barcode labelled storage tube (Thermo Scientific) and pre-incubated at 37° C.
(§2) A co-factor containing MgCl2, glucose-6-phosphate and NADP+ was prepared in deionised water and placed on ice before use.
(§3) A final working solution containing liver microsomes (Xenotech of a species of interest (human, mouse, rat, dog), previously described G6PDH and co-factors was prepared and this mix was incubated for no longer than 20 minutes at room temperature.
(§4) 30 μL of the pre-heated compound dilution was added to 40 μL of pre-heated water in the Matrix tubes and 30 μL of the microsomal mix was added.
(§5) To measure percentage remaining of compound at time zero MeOH or ACN was added (1:1) to the well before adding the microsomal mix.
(§6) The samples which were not stopped are incubated at 37° C., 300 rpm and after 1 hour of incubation the reaction was stopped with MeOH or ACN (1:1).
(§7) After stopping the reaction the samples were mixed and placed on ice for 30 min to precipitate the proteins.
(§8) The samples were analyzed on LCMS with a flow rate of 1 mL/min. Solvent A was 15 mM ammonia and solvent B was methanol or acetonitrile, depending on the stop solution used. […] The percentage remaining after 1 hour incubation was calculated from time 0 and was calculated as the percentage remaining.
(§9) The data on microsomal stability are expressed as a percentage of the total amount of compound remaining after 60 minutes.

[4] = Microsomal stability, rat liver microsomes; type: in vitro ADME; details: percentage of compound remaining after 60 minutes, 3 μM compound
Protocol: as §1, §2, §3, §4, §5, §6, §7, §8, §9

[5] = target: Recombinant human JAK2 catalytic domain (Homo sapiens (Human), UniProt O60674); experiment: JAK2 inhibition assay; type: biochemical; details: semi-quantitative score
How it was run: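 Activity was taken as vehicle cpm minus cpm with 10 μM staurosporine, and inhibition was expressed on that scale. Incubation was 90 min at 30 °C, followed by acid quench, phosphoric acid washes and Microscint counting. Compounds were tested as dose series to obtain IC50.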

[6] = target: Recombinant human JAK1 catalytic domain (Homo sapiens (Human), UniProt P23458); experiment: JAK1 inhibition assay; type: biochemical; details: semi-quantitative score
How it was run: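 IC50 values come from dose-response series, with each point expressed as percent inhibition of cpm. Vehicle sets full activity and 10 μM staurosporine sets background. Incorporated radioactivity counted by scintillation after washing with 75 mM phosphoric acid.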

Sequence of Recombinant human JAK1 catalytic domain (P23458 850-1154): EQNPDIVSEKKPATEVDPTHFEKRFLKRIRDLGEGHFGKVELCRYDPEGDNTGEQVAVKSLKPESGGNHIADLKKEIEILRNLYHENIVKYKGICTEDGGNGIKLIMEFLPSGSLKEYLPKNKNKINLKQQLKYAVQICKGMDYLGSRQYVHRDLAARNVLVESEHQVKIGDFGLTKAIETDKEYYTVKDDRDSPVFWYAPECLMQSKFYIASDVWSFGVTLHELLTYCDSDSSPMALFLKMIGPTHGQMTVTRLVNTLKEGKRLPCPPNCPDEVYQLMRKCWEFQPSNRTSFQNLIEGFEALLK
Sequence of Recombinant human JAK2 catalytic domain (O60674 808-1132): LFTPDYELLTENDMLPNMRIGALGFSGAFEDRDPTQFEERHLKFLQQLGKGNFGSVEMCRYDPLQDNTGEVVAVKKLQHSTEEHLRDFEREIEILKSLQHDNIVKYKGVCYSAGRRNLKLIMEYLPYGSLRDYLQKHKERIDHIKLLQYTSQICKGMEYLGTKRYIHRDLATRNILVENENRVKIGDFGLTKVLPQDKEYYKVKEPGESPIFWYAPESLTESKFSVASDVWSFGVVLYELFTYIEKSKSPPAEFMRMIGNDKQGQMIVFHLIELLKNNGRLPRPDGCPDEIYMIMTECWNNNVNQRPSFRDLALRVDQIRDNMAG

Compound | EC50 [1] [nM] | EC50 [2] [nM] | Microsomal Stability Human (%) [3] | Microsomal Stability Rat (%) [4] | IC50 [5] [nM] | IC50 [6] [nM]
O=C(Nc1nc2cccc(-c3ccc(CC(=O)N4CCS(=O)(=O)CC4)cc3)n2n1)C1CC1 [Compound 267, Cyclopropanecarboxylic acid (5-{4-[2-(1,1-dioxo-thiomorpholin-4-yl)-2-oxo-ethyl]-phenyl}-[1,2,4]triazolo[1,5-a]pyridin-2-yl)-amide] | > 1000 | > 1000 | **** (**** 76-100) | **** (**** 76-100) | 101 to 500 | < 100
CN(C(=O)c1ccc(-c2cccc3nc(NC(=O)C4CC4)nn23)cc1)C1CCS(=O)(=O)C1 (stereo not drawn) [Compound 273, 4-[2-(Cyclopropanecarbonyl-amino)-[1,2,4]triazolo[1,5-a]pyridin-5-yl]-N-(1,1-dioxo-tetrahydrothiophen-3-yl)-N-methyl-benzamide] | > 1000 | > 1000 | **** (**** 76-100) | **** (**** 76-100) | < 100 | < 100
NC(=O)c1ccc(NCc2ccc(-c3cccc4nc(NC(=O)C5CC5)nn34)cc2)cc1 [Compound 227, 4-{4-[2-(Cyclopropanecarbonyl-amino)-[1,2,4]triazolo[1,5-a]pyridin-5-yl]-benzylamino}-benzamide] | 501 to 1000 | > 1000 | ** (** 26-50) | **** (**** 76-100) | – | < 100
COC(=O)c1ccc(COc2ccc(-c3cccc4nc(NC(=O)C5CC5)nn34)cc2)nc1 [Compound 190] | > 1000 | > 1000 | * (* 0-25) | * (* 0-25) | – | < 100
O=C(Nc1nc2cccc(-c3ccc(C(=O)N4CCCCC4)cc3F)n2n1)C1CC1 [Compound 89, N-(5-(2-fluoro-4-(piperidine-1-carbonyl)phenyl)-[1,2,4]triazolo[1,5-a]pyridin-2-yl)cyclopropanecarboxamide] | > 1000 | > 1000 | *** (*** 51-75) | * (* 0-25) | – | < 100
CC1CC(C)CN(C(=O)c2ccc(-c3cccc4nc(NC(=O)C5CC5)nn34)cc2)C1 (stereo not drawn) [Compound 134] | > 1000 | 501 to 1000 | *** (*** 51-75) | ** (** 26-50) | – | < 100
O=C(Nc1nc2cccc(-c3ccc(C(=O)N4CCN(c5cccc(Cl)c5)CC4)cc3)n2n1)C1CC1 [Compound 113] | > 1000 | > 1000 | ** (** 26-50) | *** (*** 51-75) | – | < 100
O=C(Nc1nc2cccc(-c3ccc(C(=O)N4CCC(c5cc6ccccc6[nH]5)CC4)cc3)n2n1)C1CC1 [Compound 138] | > 1000 | 101 to 500 | ** (** 26-50) | *** (*** 51-75) | – | < 100
O=C(Nc1nc2cccc(-c3ccc(NCCc4ccccc4)nc3)n2n1)C1CC1 [Compound 123, N-(5-(6-(phenethylamino)pyridin-3-yl)-[1,2,4]triazolo[1,5-a]pyridin-2-yl)cyclopropanecarboxamide] | > 1000 | > 1000 | * (* 0-25) | * (* 0-25) | – | < 100
CC1CCCCN1C(=O)c1ccc(-c2cccc3nc(NC(=O)C4CC4)nn23)cc1 (stereo not drawn) [Compound 144, N-(5-(4-(2-methylpiperidine-1-carbonyl)phenyl)-[1,2,4]triazolo[1,5-a]pyridin-2-yl)cyclopropanecarboxamide] | > 1000 | > 1000 | ** (** 26-50) | * (* 0-25) | – | < 100
O=C(Nc1nc2cccc(-c3ccc(OCc4ccc(-c5cn[nH]c5)nc4)cc3)n2n1)C1CC1 [Compound 166] | > 1000 | > 1000 | *** (*** 51-75) | * (* 0-25) | – | < 100
O=C(NCCc1cccnc1)c1ccc(-c2cccc3nc(NC(=O)C4CC4)nn23)cc1 [Compound 124, 4-(2-(cyclopropanecarboxamido)-[1,2,4]triazolo[1,5-a]pyridin-5-yl)-N-(2-(pyridin-3-yl)ethyl)benzamide] | > 1000 | > 1000 | * (* 0-25) | * (* 0-25) | – | < 100
O=C(N[C@@H]1CCN(Cc2ccccc2)C1)c1ccc(-c2cccc3nc(NC(=O)C4CC4)nn23)cc1 [Compound 120, (R)-N-(1-benzylpyrrolidin-3-yl)-4-(2-(cyclopropanecarboxamido)-[1,2,4]triazolo[1,5-a]pyridin-5-yl)benzamide] | > 1000 | > 1000 | * (* 0-25) | * (* 0-25) | – | < 100
N#CC1(C(=O)Nc2ccc(-c3cccc4nc(NC(=O)C5CC5)nn34)cc2)CC1 [Compound 177, 1-cyano-N-(4-(2-(cyclopropanecarboxamido)-[1,2,4]triazolo[1,5-a]pyridin-5-yl)phenyl)cyclopropanecarbox-amide] | > 1000 | > 1000 | **** (**** 76-100) | **** (**** 76-100) | – | < 100
CN(C)CCN(Cc1ccccc1)C(=O)c1ccc(-c2cccc3nc(NC(=O)C4CC4)nn23)cc1 [Compound 150, N-benzyl-4-(2-(cyclopropanecarboxamido)-[1,2,4]triazolo[1,5-a]pyridin-5-yl)-N-(2-(dimethylamino)ethyl)benzamide] | > 1000 | > 1000 | *** (*** 51-75) | * (* 0-25) | – | < 100
O=C(Nc1nc2cccc(-c3ccc(NCc4cccnc4)cc3)n2n1)C1CC1 [Compound 182, N-(5-(4-(pyridin-3-ylmethylamino)phenyl)-[1,2,4]triazolo[1,5-a]pyridin-2-yl)cyclopropanecarboxamide] | > 1000 | > 1000 | * (* 0-25) | * (* 0-25) | – | < 100
O=C(Nc1nc2cccc(-c3ccc(NS(=O)(=O)c4cccnc4)cc3)n2n1)C1CC1 [Compound 64, N-(5-(4-(pyridine-3-sulfonamido)phenyl)-[1,2,4]triazolo[1,5-a]pyridin-2-yl)cyclopropanecarboxamide] | > 1000 | > 1000 | **** (**** 76-100) | *** (*** 51-75) | – | < 100
O=C(Nc1nc2cccc(-c3ccc(NS(=O)(=O)CCOc4ccccc4)cc3)n2n1)C1CC1 [Compound 122, N-(5-(4-(2-phenoxyethylsulfonamido)phenyl)-[1,2,4]triazolo[1,5-a]pyridin-2-yl)cyclopropanecarboxamide] | > 1000 | > 1000 | * (* 0-25) | * (* 0-25) | – | < 100
CN(C(=O)COc1ccc(-c2cccc3nc(NC(=O)C4CC4)nn23)cc1)c1ccccc1 [Compound 118, N-(5-(4-(2-(methyl(phenyl)amino)-2-oxoethoxy)phenyl)-[1,2,4]triazolo[1,5-a]pyridin-2-yl)cyclopropanecarboxamide] | > 1000 | > 1000 | * (* 0-25) | * (* 0-25) | – | < 100
O=C(Nc1nc2cccc(-c3ccc(C(=O)N4CCC(F)CC4)cc3)n2n1)C1CC1 [Compound 137, N-(5-(4-(4-fluoropiperidine-1-carbonyl)phenyl)-[1,2,4]triazolo[1,5-a]pyridin-2-yl)cyclopropanecarboxamide] | > 1000 | 501 to 1000 | *** (*** 51-75) | **** (**** 76-100) | – | < 100
